# Test results taken from patent US8389744B1, “TTPO (5 6,7-trithiapentacene-13-one) and its derivatives: a new class of thermally stable, photooxidatively resistant organic semiconductors” (University of New Hampshire, priority 2011, dated 2013).
# Tests used:
# Thermal stability = assay type: physicochemical; settings: stable up to and including this temperature
# [1] = Solubility in organic solvents; assay type: physicochemical
smiles,measurement,setting,value
"O=C1c2cc3ccccc3c3c2C2=S(S3)Sc3c2c1cc1ccccc31 [TTPO, 5,6,7-Trithiapentacene-13-one]",thermal stability,Thermal stability,≤ 450 °C
same,solubility,[1],soluble in a variety of organic solvents
